In ChEMBL document CHEMBL4130451, “Design and Synthesis of N-Aryl Phenoxyethoxy Pyridinones as Highly Selective and CNS Penetrant mGlu3 NAMs” (ACS Med Chem Lett, 2017):
Active and inactive are the calls of the source. No cut-off for these calls is given here.

Assays:
[1] = target: Metabotropic glutamate receptor 3 (Rattus norvegicus, UniProt P31422); test: Negative allosteric modulation of rat mGlu3 receptor expressed in TREX cells coexpressing Galpha15 assessed as inhibition of glutamate induced-calcium mobilization preincubated for 2.3 mins followed by glutamate addition measured for 2.6 mins by Fluo-4 AM dye based fluorescence assay; type: functional, cell-based
Sequence of Metabotropic glutamate receptor 3 (P31422 whole entry): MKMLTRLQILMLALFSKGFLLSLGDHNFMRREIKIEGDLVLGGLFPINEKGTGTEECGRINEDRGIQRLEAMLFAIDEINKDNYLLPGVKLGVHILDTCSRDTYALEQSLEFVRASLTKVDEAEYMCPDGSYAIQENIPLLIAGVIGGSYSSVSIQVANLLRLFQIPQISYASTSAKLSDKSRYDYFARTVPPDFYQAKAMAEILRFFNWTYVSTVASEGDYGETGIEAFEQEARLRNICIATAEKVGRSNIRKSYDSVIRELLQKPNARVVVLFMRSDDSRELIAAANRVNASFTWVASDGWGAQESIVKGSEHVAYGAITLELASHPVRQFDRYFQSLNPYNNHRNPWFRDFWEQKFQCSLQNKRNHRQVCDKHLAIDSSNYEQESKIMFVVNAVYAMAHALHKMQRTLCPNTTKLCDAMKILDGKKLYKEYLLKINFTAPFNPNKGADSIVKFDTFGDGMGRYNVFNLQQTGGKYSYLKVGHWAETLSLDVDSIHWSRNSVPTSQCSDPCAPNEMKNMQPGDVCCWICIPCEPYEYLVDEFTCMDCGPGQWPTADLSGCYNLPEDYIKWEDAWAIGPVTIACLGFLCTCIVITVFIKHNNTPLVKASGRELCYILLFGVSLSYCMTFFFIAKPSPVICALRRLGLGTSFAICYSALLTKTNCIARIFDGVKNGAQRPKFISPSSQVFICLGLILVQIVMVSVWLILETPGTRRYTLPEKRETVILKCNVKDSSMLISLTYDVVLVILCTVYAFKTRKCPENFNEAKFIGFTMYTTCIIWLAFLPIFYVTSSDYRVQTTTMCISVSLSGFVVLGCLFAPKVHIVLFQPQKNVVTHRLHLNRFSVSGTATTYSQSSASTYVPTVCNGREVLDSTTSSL

Cytochrome P450 3A4 = Cytochrome P450 3A4 (Homo sapiens, UniProt P08684); test: Inhibition of CYP3A4 in human liver microsomes using midazolam as substrate after 15 mins in presence of NADPH by LC/MS/MS analysis; type: ADME
Sequence of Cytochrome P450 3A4 (P08684 whole entry): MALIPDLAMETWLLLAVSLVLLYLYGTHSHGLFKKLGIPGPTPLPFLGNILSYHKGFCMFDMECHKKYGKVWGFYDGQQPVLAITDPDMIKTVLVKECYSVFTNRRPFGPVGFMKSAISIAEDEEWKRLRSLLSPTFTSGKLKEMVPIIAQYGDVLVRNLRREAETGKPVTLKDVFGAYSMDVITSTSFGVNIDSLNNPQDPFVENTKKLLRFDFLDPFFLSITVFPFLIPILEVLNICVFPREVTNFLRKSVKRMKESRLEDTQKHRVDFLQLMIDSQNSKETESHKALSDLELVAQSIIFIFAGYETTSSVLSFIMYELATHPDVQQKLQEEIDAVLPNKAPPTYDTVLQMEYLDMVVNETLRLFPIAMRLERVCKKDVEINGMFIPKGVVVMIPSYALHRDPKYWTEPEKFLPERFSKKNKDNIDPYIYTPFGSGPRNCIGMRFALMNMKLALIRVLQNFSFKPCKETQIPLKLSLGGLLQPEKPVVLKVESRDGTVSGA

[2] = target: Metabotropic glutamate receptor 1 (Homo sapiens) (UniProt Q13255); test: Negative allosteric modulation of human mGlu1 receptor expressed in TREX293 cells assessed as inhibition of glutamate induced-calcium mobilization preincubated for 2.3 mins followed by glutamate addition measured for 2.6 mins by Fluo-4 AM dye based fluorescence assay; type: functional, cell-based
[3] = target: Metabotropic glutamate receptor 7 (Rattus norvegicus) (UniProt P35400); test: Negative allosteric modulation of rat mGlu7 receptor expressed in HEK/GIRK cells assessed as inhibition of L-AP4 induced-calcium mobilization preincubated for 2.3 mins followed by L-AP4 addition measured for 2.6 mins by Fluo-4 AM dye based fluorescence assay; type: functional, cell-based
Sequence of Metabotropic glutamate receptor 7 (Rattus norvegicus) (P35400 whole entry): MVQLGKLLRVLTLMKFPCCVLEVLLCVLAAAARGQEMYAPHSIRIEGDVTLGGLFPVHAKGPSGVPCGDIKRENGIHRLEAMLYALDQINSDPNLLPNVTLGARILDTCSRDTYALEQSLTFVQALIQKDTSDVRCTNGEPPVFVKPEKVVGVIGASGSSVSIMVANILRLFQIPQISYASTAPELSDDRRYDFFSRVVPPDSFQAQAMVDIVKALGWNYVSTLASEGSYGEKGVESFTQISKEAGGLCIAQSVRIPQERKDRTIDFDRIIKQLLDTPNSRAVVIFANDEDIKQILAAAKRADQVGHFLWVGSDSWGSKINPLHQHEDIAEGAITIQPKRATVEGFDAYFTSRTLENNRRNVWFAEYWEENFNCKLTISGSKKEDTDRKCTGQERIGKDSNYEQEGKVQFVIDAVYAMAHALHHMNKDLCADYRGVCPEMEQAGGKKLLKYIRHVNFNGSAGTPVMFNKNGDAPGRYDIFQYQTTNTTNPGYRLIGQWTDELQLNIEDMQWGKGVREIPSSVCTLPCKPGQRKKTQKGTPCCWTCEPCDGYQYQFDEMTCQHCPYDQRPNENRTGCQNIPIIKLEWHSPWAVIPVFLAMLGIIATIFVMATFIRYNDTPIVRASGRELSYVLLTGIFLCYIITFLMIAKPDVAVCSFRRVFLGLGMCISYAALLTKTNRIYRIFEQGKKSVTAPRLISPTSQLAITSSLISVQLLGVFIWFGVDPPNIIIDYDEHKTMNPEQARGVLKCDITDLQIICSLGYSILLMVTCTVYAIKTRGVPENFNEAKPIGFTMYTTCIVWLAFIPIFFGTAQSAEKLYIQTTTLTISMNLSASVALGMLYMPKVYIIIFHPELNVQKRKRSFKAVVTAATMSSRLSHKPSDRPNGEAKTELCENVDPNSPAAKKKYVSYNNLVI

[4] = Brain to plasma partition coefficient, Kp of the compound in mouse; type: ADME
[5] = Unbound brain to plasma concentration ratio in mouse; type: ADME; details: read-out: K(p,uu,brain)
[6] = target: Beta-2 adrenergic receptor (Homo sapiens) (UniProt P07550); test: Inhibition of human adrenergic beta2 receptor at 10 uM relative to control
Sequence of Beta-2 adrenergic receptor (Homo sapiens) (P07550 whole entry, looked up): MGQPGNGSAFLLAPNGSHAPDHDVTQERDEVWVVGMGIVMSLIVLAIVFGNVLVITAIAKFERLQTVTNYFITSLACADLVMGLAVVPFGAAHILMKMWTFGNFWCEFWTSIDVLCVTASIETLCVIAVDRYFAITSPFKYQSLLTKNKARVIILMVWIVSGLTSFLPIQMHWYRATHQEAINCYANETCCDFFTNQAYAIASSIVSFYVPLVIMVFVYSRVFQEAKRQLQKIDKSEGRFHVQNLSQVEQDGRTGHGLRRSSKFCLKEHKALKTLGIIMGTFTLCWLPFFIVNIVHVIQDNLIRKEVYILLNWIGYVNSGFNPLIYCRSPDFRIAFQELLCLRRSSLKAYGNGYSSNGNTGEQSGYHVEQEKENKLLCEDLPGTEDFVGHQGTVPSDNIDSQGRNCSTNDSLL

[7] = target: B1 bradykinin receptor (Homo sapiens) (UniProt P46663); test: Inhibition of human bradykinin B1 receptor at 10 uM relative to control
Sequence of B1 bradykinin receptor (Homo sapiens) (P46663 whole entry): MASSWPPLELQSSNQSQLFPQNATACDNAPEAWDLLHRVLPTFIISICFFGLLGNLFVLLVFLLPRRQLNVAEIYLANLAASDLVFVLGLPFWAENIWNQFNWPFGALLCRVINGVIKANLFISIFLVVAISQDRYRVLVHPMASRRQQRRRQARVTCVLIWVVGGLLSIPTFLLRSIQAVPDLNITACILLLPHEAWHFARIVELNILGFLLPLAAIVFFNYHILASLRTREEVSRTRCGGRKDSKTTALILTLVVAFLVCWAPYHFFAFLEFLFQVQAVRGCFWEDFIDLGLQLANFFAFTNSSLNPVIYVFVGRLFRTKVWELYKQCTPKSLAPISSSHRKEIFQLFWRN

Rattus norvegicus = species on record: Rattus norvegicus; test: Inhibition of rat central GABA-A receptor muscimol site at 10 uM relative to control
[8] = target: Glutamate NMDA receptor (Rattus norvegicus) (UniProt P35439+Q00959+Q00960+Q00961+Q62645+Q8VHN2+Q9R1M7); test: Inhibition of rat glutamate NMDA receptor agonist binding site at 10 uM relative to control; type: protein-complex assay
[9] = target: Muscarinic acetylcholine receptor M2 (Homo sapiens) (UniProt P08172); test: Inhibition of human muscarinic M2 receptor at 10 uM relative to control
Sequence of Muscarinic acetylcholine receptor M2 (Homo sapiens) (P08172 whole entry): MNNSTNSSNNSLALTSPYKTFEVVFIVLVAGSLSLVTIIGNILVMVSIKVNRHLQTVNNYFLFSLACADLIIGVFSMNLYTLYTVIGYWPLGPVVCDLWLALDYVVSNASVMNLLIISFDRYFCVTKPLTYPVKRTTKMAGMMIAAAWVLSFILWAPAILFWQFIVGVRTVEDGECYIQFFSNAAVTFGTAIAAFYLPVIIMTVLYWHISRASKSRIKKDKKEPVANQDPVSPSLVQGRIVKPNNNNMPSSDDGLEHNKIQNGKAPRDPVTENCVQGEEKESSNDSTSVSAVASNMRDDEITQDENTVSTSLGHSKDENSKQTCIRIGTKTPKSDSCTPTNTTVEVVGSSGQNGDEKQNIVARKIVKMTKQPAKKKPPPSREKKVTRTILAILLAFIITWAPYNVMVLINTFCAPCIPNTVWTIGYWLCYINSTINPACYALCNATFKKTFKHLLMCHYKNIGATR

[10] = target: Mu-type opioid receptor (Homo sapiens) (UniProt P35372); test: Inhibition of human mu opioid receptor at 10 uM relative to control
Sequence of Mu-type opioid receptor (Homo sapiens) (P35372 whole entry): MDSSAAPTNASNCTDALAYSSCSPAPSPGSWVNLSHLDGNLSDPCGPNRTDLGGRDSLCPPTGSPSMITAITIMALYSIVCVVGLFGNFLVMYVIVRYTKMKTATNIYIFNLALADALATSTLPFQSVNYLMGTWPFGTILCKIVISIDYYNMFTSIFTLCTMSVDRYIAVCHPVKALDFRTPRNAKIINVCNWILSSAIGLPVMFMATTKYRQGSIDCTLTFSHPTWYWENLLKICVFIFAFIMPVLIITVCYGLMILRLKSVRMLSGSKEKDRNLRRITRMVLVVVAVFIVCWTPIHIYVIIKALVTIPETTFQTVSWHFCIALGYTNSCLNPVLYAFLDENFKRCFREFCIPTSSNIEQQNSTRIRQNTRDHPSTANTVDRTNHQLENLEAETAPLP

Oryctolagus cuniculus = species on record: Oryctolagus cuniculus; test: Inhibition of rabbit P2X receptor at 10 uM relative to control
[11] = target: Sodium-dependent dopamine transporter (Homo sapiens) (UniProt Q01959); test: Inhibition of human DAT at 10 uM relative to control
Sequence of Sodium-dependent dopamine transporter (Homo sapiens) (Q01959 whole entry): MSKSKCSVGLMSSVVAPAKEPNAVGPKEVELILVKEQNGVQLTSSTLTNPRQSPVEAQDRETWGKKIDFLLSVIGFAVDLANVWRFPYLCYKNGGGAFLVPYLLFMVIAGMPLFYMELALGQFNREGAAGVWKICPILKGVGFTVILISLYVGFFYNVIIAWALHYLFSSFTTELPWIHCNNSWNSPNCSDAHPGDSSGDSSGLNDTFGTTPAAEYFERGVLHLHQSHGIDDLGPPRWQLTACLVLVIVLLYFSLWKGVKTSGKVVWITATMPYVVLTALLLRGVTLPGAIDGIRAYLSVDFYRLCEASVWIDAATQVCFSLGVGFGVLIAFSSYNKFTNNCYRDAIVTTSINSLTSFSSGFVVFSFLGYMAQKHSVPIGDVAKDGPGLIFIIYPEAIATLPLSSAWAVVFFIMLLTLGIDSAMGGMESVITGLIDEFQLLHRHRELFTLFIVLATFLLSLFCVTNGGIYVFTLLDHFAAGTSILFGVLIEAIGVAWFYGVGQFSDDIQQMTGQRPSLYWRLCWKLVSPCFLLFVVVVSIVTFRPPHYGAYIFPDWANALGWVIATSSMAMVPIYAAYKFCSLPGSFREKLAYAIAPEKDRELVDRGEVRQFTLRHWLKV

C[C@@H](COc1ccn(-c2ccc(F)cc2)c(=O)c1)Oc1ccccc1
IC50 [1]: 245 nM
IC50 (Cytochrome P450 3A4): > 30 µM
inhibition [2]: inactive
inhibition [3]: inactive
Kp [4]: 1.17
Kp uu [5]: 0.26
inhibition [6]: > 50%
inhibition [7]: > 50%
inhibition (Rattus norvegicus): > 50%
inhibition [8]: > 50%
inhibition [9]: > 50%
inhibition [10]: > 50%
inhibition (Oryctolagus cuniculus): > 50%
inhibition [11]: > 50%
